# From US8980891B2, “Crystalline forms of certain 3-phenyl-pyrazole derivatives as modulators of the 5-HT2A serotonin receptor useful for the treatment of disorders related thereto” (Arena Pharmaceuticals, Inc., priority 2009, dated 2015)
# Key:
# [1] = slurry of the anhydrous form in water; assay type: physicochemical; settings: stirred at about 26-28° C. for ~3 days
# Experimental: A slurry of anhydrous 4-(2-(4-(3-methoxybenzamido)-2-(1-methyl-1H-pyrazol-5-yl)phenoxy)ethyl)morpholin-4-ium chloride in water was stirred at ambient/stir plate temperature (about 26-28° C.) for ˜3 days.
# [2] = system: DOCA-salt induced hypertension; settings: rats; cited from earlier work
# glaucoma patients = settings: cited from earlier work
# JC virus = settings: cited from earlier work
# 5-HT2A = 5-HT2A (Homo sapiens, UniProt P28223); settings: cited from earlier work
# heatstroke = settings: in vivo; cited from earlier work
# [3] = system: spontaneously hypertensive rats; settings: cited from earlier work
# diabetic nephropathy = settings: trial of 24 months of treatment; cited from earlier work
# thermal induced pain = settings: rats, intraperitoneal administration; cited from earlier work
# inflammatory pain = settings: rats, intrathecal or intraperitoneal administration; cited from earlier work
# [4] = system: lower back pain, leg pain and numbness associated with sciatica; settings: humans; cited from earlier work
# 5-HT2A, sequence (P28223 whole entry, species assumed): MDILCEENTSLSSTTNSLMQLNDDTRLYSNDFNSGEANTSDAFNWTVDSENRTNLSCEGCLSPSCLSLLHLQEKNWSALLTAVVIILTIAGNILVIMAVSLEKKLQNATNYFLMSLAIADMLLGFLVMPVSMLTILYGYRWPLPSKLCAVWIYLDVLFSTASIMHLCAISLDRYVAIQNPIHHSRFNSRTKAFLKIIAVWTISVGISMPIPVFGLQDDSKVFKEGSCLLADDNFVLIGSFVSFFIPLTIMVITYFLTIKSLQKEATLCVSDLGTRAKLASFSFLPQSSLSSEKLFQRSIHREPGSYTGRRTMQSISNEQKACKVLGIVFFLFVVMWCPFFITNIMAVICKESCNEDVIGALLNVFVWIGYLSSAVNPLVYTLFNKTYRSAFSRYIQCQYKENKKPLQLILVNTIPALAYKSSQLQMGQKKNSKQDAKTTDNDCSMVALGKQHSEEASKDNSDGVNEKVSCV
smiles,measurement,setting,value
"COc1cccc(C(=O)Nc2ccc(OCCN3CCOCC3)c(-c3ccnn3C)c2)c1.Cl [Example 1, 4-(2-(4-(3-Methoxybenzamido)-2-(1-methyl-1H-pyrazol-5-yl)phenoxy)ethyl)morpholin-4-ium chloride]",solid form recovered after slurry in water,[1],anhydrous form was recovered
CN1CCN2c3ccccc3Cc3ccccc3C2C1 (centres unmarked) [Mainserin],DOCA-salt induced hypertension,[2],prevent
O=C(c1ccc(F)cc1)C1CCN(CCn2c(=O)[nH]c3ccccc3c2=O)CC1 [ketanserin],IOP,glaucoma patients,significantly lower
same,JC virus infection of human glial cells,JC virus,inhibited
same,activity at 5-HT2A,5-HT2A,inverse agonist activity
same,"protection against circulatory shocks, intracranial hypertension, and cerebral ischemia during heatstroke",heatstroke,protect
same,blood pressure,[3],stabilize
Cc1nc2sccn2c(=O)c1CCN1CCC(=C(c2ccc(F)cc2)c2ccc(F)cc2)CC1 [ritanserin],JC virus infection of human glial cells,JC virus,inhibited
same,activity at 5-HT2A,5-HT2A,inverse agonist activity
COc1cccc(CCc2ccccc2OCC(CN(C)C)OC(=O)CCC(=O)O)c1 (centres unmarked) [sarpogrelate],urinary albumin excretion level,diabetic nephropathy,significantly reduced
same,IOP,glaucoma patients,significantly lower
same,analgesic effect on thermal induced pain,thermal induced pain,significant analgesic effect
same,analgesic effect on inflammatory pain,inflammatory pain,significant analgesic effect
same,"treatment for lower back pain, leg pain and numbness associated with sciatica brought on by lumbar disc herniation",[4],effective treatment
